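96-well plates; 48 h exposure; 5 concentrations. Endpoints by linear interpolation between flanking doses. Not reached: highest tested concentration assigned. GI50 is the concentration that inhibits growth by half.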 Activity calls are given as the source filed them. Rule as the data show it: active = GI50 up to about 1.1 µM and inactive = higher.
Columns and labels:
Assay in all cases: NCI tumour cell line growth inhibition, 48 h
786-0 = test system: 786-0
A498 = test system: A498
A549 = test system: A549
ACHN = test system: ACHN
CAKI-1 = test system: CAKI-1
CCRF-CEM = test system: CCRF-CEM
COLO 205 = test system: COLO 205
DLD-1 = test system: DLD-1
DMS-114 = test system: DMS-114
EKVX = test system: EKVX
HCC 2998 = test system: HCC 2998
HCT-116 = test system: HCT-116
HCT-15 = test system: HCT-15
HL-60 = test system: HL-60
HOP-62 = test system: HOP-62
HOP-92 = test system: HOP-92
HT-29 = test system: HT-29
IGROV-1 = test system: IGROV-1
K562 = test system: K562
KM-20L2 = test system: KM-20L2
KM12 = test system: KM12
LOX IMVI = test system: LOX IMVI
LXFL 529 = test system: LXFL 529
M14 = test system: M14
M19-MEL = test system: M19-MEL
MOLT-4 = test system: MOLT-4
Malme-3M = test system: Malme-3M
NCI-H226 = test system: NCI-H226
NCI-H23 = test system: NCI-H23
NCI-H460 = test system: NCI-H460
NCI-H522 = test system: NCI-H522
OVCAR-3 = test system: OVCAR-3
OVCAR-4 = test system: OVCAR-4
OVCAR-5 = test system: OVCAR-5
RPMI-8226 = test system: RPMI-8226
RXF 393 = test system: RXF 393
RXF 631 = test system: RXF 631
SF-268 = test system: SF-268
SF-295 = test system: SF-295
SF-539 = test system: SF-539
SK-MEL-28 = test system: SK-MEL-28
SK-MEL-5 = test system: SK-MEL-5
SK-OV-3 = test system: SK-OV-3
SN12C = test system: SN12C
SNB-19 = test system: SNB-19
SNB-75 = test system: SNB-75
SNB-78 = test system: SNB-78
SR = test system: SR
SW-620 = test system: SW-620
TK-10 = test system: TK-10
U-251 = test system: U-251
UACC-257 = test system: UACC-257
UACC-62 = test system: UACC-62
UO-31 = test system: UO-31
XF498 = test system: XF498
DMS-273 = test system: DMS-273
OVCAR-8 = test system: OVCAR-8
SK-MEL-2 = test system: SK-MEL-2

For `O=C1C2C(C(=O)N1OS(=O)(=O)c1ccccc1)N(Cc1ccccc1)C(=O)N2Cc1ccccc1` (stereo not given), the GI50 (786-0) was > 100 µM (inactive), the GI50 (A498) was > 100 µM (inactive) and the GI50 (A549) was > 100 µM (inactive). The GI50 (ACHN) was > 100 µM (inactive), the GI50 (CAKI-1) was > 100 µM (inactive) and the GI50 (CCRF-CEM) was > 100 µM (inactive). For the same compound, the GI50 (COLO 205) was > 100 µM (inactive), the GI50 (DLD-1) was > 100 µM (inactive) and the GI50 (DMS-114) was > 100 µM (inactive). For the same compound, the GI50 (EKVX) was > 100 µM (inactive), the GI50 (HCC 2998) was > 100 µM (inactive) and the GI50 (HCT-116) was > 100 µM (inactive). The GI50 (HCT-15) was over 100 µM, the GI50 (HL-60) was > 100 µM (inactive) and the GI50 (HOP-62) was > 100 µM (inactive). The GI50 (HOP-92) was > 100 µM (inactive), the GI50 (HT-29) was > 100 µM (inactive) and the GI50 (IGROV-1) was > 100 µM (inactive). The GI50 (K562) was > 100 µM (inactive), the GI50 (KM-20L2) was > 100 µM (inactive) and the GI50 (KM12) was > 100 µM (inactive). The GI50 (LOX IMVI) was > 100 µM (inactive), the GI50 (LXFL 529) was > 100 µM (inactive) and the GI50 (M14) was > 100 µM (inactive). For the same compound, the GI50 (M19-MEL) was > 100 µM (inactive), the GI50 (MOLT-4) was > 100 µM (inactive) and the GI50 (Malme-3M) was > 100 µM (inactive). For the same compound, the GI50 (NCI-H226) was > 100 µM (inactive), the GI50 (NCI-H23) was > 100 µM (inactive) and the GI50 (NCI-H460) was > 100 µM (inactive). For the same compound, the GI50 (NCI-H522) was > 100 µM (inactive), the GI50 (OVCAR-3) was > 100 µM (inactive) and the GI50 (OVCAR-4) was > 100 µM (inactive). For the same compound, the GI50 (OVCAR-5) was > 100 µM (inactive), the GI50 (RPMI-8226) was > 100 µM (inactive) and the GI50 (RXF 393) was 70.8 µM (inactive). For the same compound, the GI50 (RXF 631) was > 100 µM (inactive), the GI50 (SF-268) was > 100 µM (inactive) and the GI50 (SF-295) was > 100 µM (inactive). The GI50 (SF-539) was > 100 µM (inactive), the GI50 (SK-MEL-28) was > 100 µM (inactive) and the GI50 (SK-MEL-5) was > 100 µM (inactive). For the same compound, the GI50 (SK-OV-3) was > 100 µM (inactive), the GI50 (SN12C) was > 100 µM (inactive) and the GI50 (SNB-19) was > 100 µM (inactive). For the same compound, the GI50 (SNB-75) was 57.1 µM (inactive), the GI50 (SNB-78) was > 100 µM (inactive) and the GI50 (SR) was > 100 µM (inactive). For the same compound, the GI50 (SW-620) was > 100 µM (inactive), the GI50 (TK-10) was > 100 µM (inactive) and the GI50 (U-251) was > 100 µM (inactive). For the same compound, the GI50 (UACC-257) was > 100 µM (inactive), the GI50 (UACC-62) was > 100 µM (inactive) and the GI50 (UO-31) was > 100 µM (inactive). For the same compound, the GI50 (XF498) was > 100 µM (inactive).
`O=c1cccccc1NCCCNc1cccccc1=O` was tested, and the GI50 (786-0) was > 100 µM (inactive), the GI50 (A549) was > 100 µM (inactive) and the GI50 (ACHN) was > 100 µM (inactive). The GI50 (CAKI-1) was > 100 µM (inactive), the GI50 (CCRF-CEM) was > 100 µM (inactive) and the GI50 (COLO 205) was > 100 µM (inactive). For the same compound, the GI50 (DMS-114) was > 100 µM (inactive), the GI50 (DMS-273) was > 100 µM (inactive) and the GI50 (EKVX) was > 100 µM (inactive). The GI50 (HCT-116) was > 100 µM (inactive), the GI50 (HCT-15) was over 100 µM and the GI50 (HL-60) was 43.2 µM (inactive). For the same compound, the GI50 (HOP-62) was > 100 µM (inactive), the GI50 (HOP-92) was > 100 µM (inactive) and the GI50 (HT-29) was 88.3 µM (inactive). The GI50 (IGROV-1) was > 100 µM (inactive), the GI50 (K562) was > 100 µM (inactive) and the GI50 (KM-20L2) was > 100 µM (inactive). For the same compound, the GI50 (KM12) was > 100 µM (inactive), the GI50 (LOX IMVI) was > 100 µM (inactive) and the GI50 (LXFL 529) was > 100 µM (inactive). The GI50 (M14) was > 100 µM (inactive), the GI50 (M19-MEL) was > 100 µM (inactive) and the GI50 (MOLT-4) was > 100 µM (inactive). The GI50 (Malme-3M) was 11.9 µM (inactive), the GI50 (NCI-H226) was > 100 µM (inactive) and the GI50 (NCI-H23) was > 100 µM (inactive). The GI50 (NCI-H460) was 41.6 µM (inactive), the GI50 (NCI-H522) was > 100 µM (inactive) and the GI50 (OVCAR-3) was > 100 µM (inactive). For the same compound, the GI50 (OVCAR-5) was > 100 µM (inactive), the GI50 (OVCAR-8) was > 100 µM (inactive) and the GI50 (RPMI-8226) was > 100 µM (inactive). For the same compound, the GI50 (RXF 393) was > 100 µM (inactive), the GI50 (RXF 631) was 31 µM (inactive) and the GI50 (SF-268) was > 100 µM (inactive). For the same compound, the GI50 (SF-295) was > 100 µM (inactive), the GI50 (SF-539) was > 100 µM (inactive) and the GI50 (SK-MEL-2) was > 100 µM (inactive). For the same compound, the GI50 (SK-OV-3) was > 100 µM (inactive), the GI50 (SN12C) was 15.9 µM (inactive) and the GI50 (SNB-19) was > 100 µM (inactive). For the same compound, the GI50 (SNB-78) was > 100 µM (inactive), the GI50 (SR) was > 100 µM (inactive) and the GI50 (SW-620) was > 100 µM (inactive). The GI50 (U-251) was > 100 µM (inactive), the GI50 (UACC-257) was > 100 µM (inactive) and the GI50 (UACC-62) was > 100 µM (inactive). The GI50 (UO-31) was > 100 µM (inactive) and the GI50 (XF498) was > 100 µM (inactive).
